Results taken from US10288604B2, “Method for imaging cell using fluorescence-labeled sugar derivative having coumarin derivative bound thereto, and imaging agent” (HIROSAKI UNIVERSITY, priority 2012, dated 2019).

System: mouse insulinoma cells (MIN6)
Test: Uptake into MIN6 cells and influence of glucose transport inhibitors (fluorescent microplate reader)
Type: cell-based
Method: Cryopreserved MIN6 cells (cells donated from Professor Miyazaki Junichi of Osaka University and cultured 5 to 8 passages) were subjected to culture according to an ordinary method, and cultures at 7 to 9 passages were used in experiments.
NaCl 129.0 mM, KCl 4.75 mM, KH2 PO4 1.19 mM, MgSO4.7H2O 1.19 mM, CaCl2.2H2O 1.0 mM, NaHCO3 5.02 mM, D-Glucose 5.6 mM, HEPES 10 mM (pH was adjusted to 7.35 with 1M NaOH). For inhibiting entrance and elimination of a fluorescently labeled glucose via gap junction/hemichannel, 0.1 mM Carbenoxolone (SIGMA #C4790) was added. This KRB solution was used as a solution for preparing a 2-PBLG solution.
2-PBDG and 2-PBLG were charged into wells at the third column and the fifth column, respectively, using a 8-channel pipette. Before administration, the autofluorescence of each well was measured beforehand by a fluorescent micro plate reader (Flex Station, manufactured by Molecular Device). The measurement conditions include Bottom Read, Ex 401 nm, Em 453 nm, Cut off 420 nm, Averaging 3, and high sensitivity of Photomultiplier. In the measurement method, Well Scan Mode was used. In Well Scan Mode, the inside of one well was divided into 9 regions of interest (diameter: 1.5 mm) and measurement was performed each independently.
Next, in wells (3C, 3E, 3G) for measuring the effect of a glucose transport inhibitor phloretin, phloretin (final 150 μM) was administered beforehand from 5 minutes prior to administration of 2-PBDG, while KRB was added to other wells (3B, 3D, 3F). Similar operation was also conducted on the fifth column where 2-PBLG was to be administered. 2-PBDG and 2-PBLG were administrated at 37° C. for 10 minutes.
After completion of administration, a diluting operation of the fluorescence solution in the well using 300 μL of a KRB solution was repeated set times each for 30 seconds. The repetition time was determined so that the fluorescence intensity detected by wells of A-th row and H-th row set as a control group was equivalent to the fluorescence intensity of a blank well containing no cell, and complete washout was confirmed in every experiment. In the case of 2-PBDG and 2-PBLG, this washout process needed 8 minutes, thus, measurement of fluorescence after administration was carried out 9 minutes after.
According to this method, even if cells having undergone a loss of the plasma membrane contacted 2-PBDG and 2-PBLG and once took up these compounds into themselves, it is judged that contribution of the increase in the fluorescence intensity to the whole observation area was ignorable level since these compounds had already been washed out of the cells when performing the measurement. This was supported by a pharmacological inhibition experiment separately in which the increase in the fluorescence intensity almost completely disappeared in the presence of an inhibitor. The above-described method was conducted in the same manner also when other inhibitor, for example, cytochalasin B (10 μM) was added.
The change of fluorescence intensity by administration of a D-glucose derivative (2-PBDG), an L-glucose derivative (2-PBLG) and PB—NH2 prepared by amidating Pacific Blue (PB) chromophore group to MIN6 cells on day of 10 of culture and the effect by a glucose transport inhibitor were confirmed in the same manner as in Example 4. PB—NH2 has the following structure (Ex max. 402 nm, Em max. 451 nm).
An experiment was conducted in the same manner as in Example 4.
The experiment was carried out 3 times independently, and the same results were obtained in all cases. In the experiment of administration of 2-PBDM, excitation occurred at a maximum excitation light wavelength of 404 nm and fluorescence was acquired at a maximum emission wavelength of 453 nm.

## O=C(NC1C(O)OC(CO)[C@H](O)C1O)c1cc2cc(F)c(O)c(F)c2oc1=O (stereo partly drawn) [2-PBLG, 2-Deoxy-2-((6,8-difluoro-7-hydroxycoumarin-3-yl)carboxamido)-L-glucose]
100 μM derivative, 150 μM phloretin, MIN6 day 10, increase without phloretin as reference
  decreased value of fluorescence intensity owing to phloretin (average): 20.0%
100 μM derivative, phloretin 150 μM, MIN6 day 10
  effect of phloretin on increase in fluorescence intensity (in words): inhibited the increase in the fluorescence intensity by 2-PBLG slightly
100 μM each, absence of phloretin, 2-PBDG = 100%
  difference between fluorescence intensity of 2-PBDG and of 2-PBLG: no significant difference
100 μM, MIN6 on day 10 of culture, Ex 401 nm, Em 453 nm
  fluorescence intensity after administration as compared with that before administration: increases significantly
